Read-outs that look alike come from different tables or passages of the source.
Experiment: In vivo kinetic parameters in mouse after oral administration (plasma, LC/MS)
Details: for half-life: read-out: t½ (converted)
Protocol: 6-Week old ddY male mice were starved for 12 hours, and then used for the experiment. To the mice, Am80 (3.30 mg/kg), 3-[4-[(5,6,7,8-tetrahydro-5,5,8,8-tetramethyl-2-naphthalenyl)carbamoyl]phenyl]propionic acid (protium compound, M700, 3.56 mg/kg), or 3-[4-[(5,6,7,8-tetrahydro-5,5,8,8-tetramethyl-2-naphthalenyl)carbamoyl]phenyl]propionic acid-2,2,3,3-d4 (deuterated propionic acid derivative, Y616, 3.60 mg/kg) was orally administered (the dose in terms of molar amount was 9.4 μmol/kg for all the compounds). A 94 mM solution of each compound in DMSO was prepared, and suspended in 0.5% methylcellulose so as to be diluted 100 times, and the suspension was orally administered at a dose of 10 ml/kg by using a 1-ml syringe and a catheter for oral administration.
After 15 minutes, 30 minutes, 1 hour, 2 hours, 3 hours, 6 hours, 12 hours, and 24 hours from the administration of each compound, whole blood was collected from the mouse abdominal aorta under diethyl ether anesthesia by using a heparin-treated glass syringe and a 26G hypodermic needle (five mice were used for each compound). The collected blood was centrifuged at 13,700×g and 4° C. for 5 minutes to separate the plasma, and the separated plasma was stored at −30° C.
The plasma (100 μL) was put into a 1.5-ml tube, and added with ethyl acetate (400 μl), the mixture was stirred, ultrasonicated for 1 minute, and centrifuged at 13,700×g and 20° C. for 3 minutes, and the supernatant was collected. The residue was added with ethyl acetate (400 μl), and the mixture was subjected once again to the aforementioned procedure. The collected supernatant was put into a 1.5-ml tube in an appropriate volume, and dried with nitrogen gas. The residue was dissolved in methanol (100 μl) to obtain a sample for LC/MS.
All the samples were used for […] in a volume of 5 μl. The LC/MS apparatus used was constituted with Waters 2695 Separations Module (Nihon Waters) and 3100 Mass Detector (Nihon Waters). Each compound was quantified by the absolute calibration curve method.

[1] = mouse, 3.3 mg/kg, Administration of AM80, 3.30 mg/kg (9.4 μmol/kg) oral, ddY male mice, plasma
[2] = mouse, 3.6 mg/kg, Administration of Y616, 3.60 mg/kg (9.4 μmol/kg) oral, ddY male mice, plasma, label = analyte measured
[3] = mouse, 3.6 mg/kg, Administration of Y616, 3.60 mg/kg (9.4 μmol/kg) oral, ddY male mice, plasma, label = analyte measured, read-out: AUC
[4] = mouse, 3.6 mg/kg, Administration of Y616, 3.60 mg/kg (9.4 μmol/kg) oral, ddY male mice, plasma, label = analyte measured, read-out: Tmax
[5] = mouse, Administration of M700, 3.56 mg/kg (9.4 μmol/kg) oral, ddY male mice, plasma, label = analyte measured
[6] = mouse, Administration of M700, 3.56 mg/kg (9.4 μmol/kg) oral, ddY male mice, plasma, label = analyte measured, read-out: AUC
[7] = mouse, Administration of M700, 3.56 mg/kg (9.4 μmol/kg) oral, ddY male mice, plasma, label = analyte measured, read-out: Tmax
[8] = oral, mouse, after administration of the labelled prodrug
[9] = oral, mouse, compared with the protium compound
[10] = Administration of M700, 3.56 mg/kg (9.4 μmol/kg) oral, ddY male mice, plasma, label = analyte measured

Cmax [2]	AUC [3]	Tmax [4]	half-life [2]	Cmax [5]	AUC [6]	Tmax [7]	half-life [5]	Compound	also measured
930 nM	3.48 µM·h	60 min	133 min	1060 nM	2.74 µM·h	60 min	73.2 min	CC1(C)CCC(C)(C)c2cc(NC(=O)c3ccc(C(=O)O)cc3)ccc21 [Am80, 4-[(5,6,7,8-tetrahydro-5,5,8,8-tetramethyl-2-naphthalenyl)carbamoyl]benzoic acid]	Cmax [1]: 1870 nM; AUC (mouse, 3.3 mg/kg, Administration of AM80, 3.30 mg/kg (9.4 μmol/kg) oral, ddY male mice, plasma, read-out: AUC): 2.8 µM·h; Tmax (mouse, 3.3 mg/kg, Administration of AM80, 3.30 mg/kg (9.4 μmol/kg) oral, ddY male mice, plasma, read-out: Tmax): 30 min; half-life [1]: 48.6 min
				1620 nM	1.32 µM·h	30 min	28.2 min	CC1(C)CCC(C)(C)c2cc(NC(=O)c3ccc(CCC(=O)O)cc3)ccc21 [Example M700, 3-[4-[(5,6,7,8-tetrahydro-5,5,8,8-tetramethyl-2-naphthalenyl)carbamoyl]phenyl]propionic acid]	
				20 nM	0.02 µM·h	30 min	25.8 min	CC1(C)CCC(C)(C)c2cc(NC(=O)c3ccc(C(O)CC(=O)O)cc3)ccc21 (centres unmarked) [Example M700-M2, 3-[4-[(5,6,7,8-tetrahydro-5,5,8,8-tetramethyl-2-naphthalenyl)carbamoyl]phenyl]-3-hydroxypropionic acid]	
1370 nM	1.95 µM·h	30 min	49.8 min					[2H]C([2H])(C(=O)O)C([2H])([2H])c1ccc(C(=O)Nc2ccc3c(c2)C(C)(C)CCC3(C)C)cc1 [Example Y616, 3-[4-[(5,6,7,8-tetrahydro-5,5,8,8-tetramethyl-2-naphthalenyl)carbamoyl]phenyl]propionic acid-2,2,3,3-d4]	metabolic intermediate M1 generated [8]: markedly decreased; metabolic intermediate M2 generated [8]: not observed; AUC of the prodrug [9]: increased; half-life (t½) of the prodrug [9]: extended
								4-[(5,6,7,8-tetrahydro-5,5,8,8-tetramethyl-2-naphthalenyl)carbamoyl]phenylcinnamic acid [Example M700-M1]	AUC [10]: 0.54 µM·h; Cmax [10]: 710 nM; Tmax [10]: 30 min; t½ [10]: 28.2 min
